Laboratory results as given in patent publication US20170105969A1, “CENICRIVIROC FOR THE TREATMENT OF HIV-2 INFECTION” (Tobira Therapeutics, Inc., priority 2014, published 2017).
“Also recorded” adds a separate entry of the source. Marks after values point to notes of the source that are not given here.

Legend:
[1] = molecular target: T1, CCR4 (Homo sapiens, UniProt P51679); test: Ligand binding to CCR4
T1 sequence (P51679 1-360): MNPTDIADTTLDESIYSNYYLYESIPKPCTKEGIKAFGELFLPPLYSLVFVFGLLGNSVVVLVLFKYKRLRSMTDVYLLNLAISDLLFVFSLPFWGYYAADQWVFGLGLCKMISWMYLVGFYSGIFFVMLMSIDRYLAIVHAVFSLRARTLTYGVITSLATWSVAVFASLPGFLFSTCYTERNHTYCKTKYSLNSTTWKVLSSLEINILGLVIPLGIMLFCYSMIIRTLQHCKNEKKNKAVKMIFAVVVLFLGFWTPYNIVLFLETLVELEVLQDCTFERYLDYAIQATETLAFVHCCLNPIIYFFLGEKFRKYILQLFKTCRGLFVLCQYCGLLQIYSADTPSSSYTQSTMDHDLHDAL

[2] = system: HIV-1; test: Study 202: virologic response (plasma HIV-1 RNA <50 copies/mL), Snapshot algorithm, ITT; format: in vivo, human; conditions: Week 24
Description: The primary efficacy endpoint was the percentage of subjects with plasma HIV-1 RNA <50 copies/mL at Week 24 (using the FDA Snapshot algorithm and the ITT population).

[3] = system: RANTES-induced Ca2+ mobilization; test: RANTES-induced Ca2+ mobilization; format: cell-based
[4] = system: HIV; test: Ex vivo intracellular HIV DNA (qPCR) in PBMCs of Study 202 subjects; conditions: Week 24
Protocol: Early (strong-stop) and late (full-length) reverse transcript levels were measured by qPCR. […] P24 and viral load levels were measured by ELISA and qRT-PCR after 4 hours.

[5] = molecular target: T2, CCR2 (Homo sapiens, UniProt P41597); test: CCR2 receptor occupancy / internalization in PBMCs (monocytes) by flow cytometry; format: cell-based
T2 construct: endogenous in cells; host or cells: monocytes within PBMCs from 5 HIV+ and 5 HIV- subjects
T2 sequence (P41597 1-360 isoform P41597-2): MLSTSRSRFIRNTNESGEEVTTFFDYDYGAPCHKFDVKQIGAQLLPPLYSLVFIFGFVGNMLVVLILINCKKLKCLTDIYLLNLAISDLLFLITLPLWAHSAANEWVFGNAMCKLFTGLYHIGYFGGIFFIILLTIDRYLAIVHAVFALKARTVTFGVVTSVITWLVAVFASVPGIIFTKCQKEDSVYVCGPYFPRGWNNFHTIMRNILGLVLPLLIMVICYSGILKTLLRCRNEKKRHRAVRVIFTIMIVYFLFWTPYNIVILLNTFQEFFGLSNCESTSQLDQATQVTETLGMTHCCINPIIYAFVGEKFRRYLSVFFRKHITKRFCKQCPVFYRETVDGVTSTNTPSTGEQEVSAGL
Protocol: The capacity of each drug to inhibit CCR5 or CCR2 internalization was evaluated. Cell-surface expression of CCR5 and CCR2 was assessed by flow cytometry, and fluorescence values were converted into molecules of equivalent soluble fluorescence (MESF).

[6] = system: HIV-1; test: Study 201: pharmacokinetic/pharmacodynamic relationships (Emax model); format: in vivo, human
Description: Drug response was characterized using the following maximum effect (Emax) model: […]

[7] = system: CCR5-tropic HIV-1; test: Study 201: plasma HIV-1 RNA over 10 days of CVC monotherapy; format: in vivo, human; conditions: for subjects who achieved HIV-1 RNA levels <400 copies/mL: over the entire study; for HIV-1 RNA, LS mean (SEM) change from Baseline / HIV-1 RNA, Median change from Baseline: Day 11
Protocol: Subjects were antiretroviral treatment experienced, CCR5 antagonist-naïve, with HIV-1 RNA levels of at least 5000 copies/mL and CD4+ cell counts of at least 250 cells/mm^3. Subjects with HIV-2, hepatitis B virus, or hepatitis C virus co-infection or dual/mixed-tropic HIV-1 were ineligible. Other than their HIV-1 infection, subjects were generally healthy.
In this study, all dose groups received the original formulation (DP3_25), except the 100 mg dose group which received an alternative formulation (DP4_100). […] These subjects were excluded from the efficacy, PK, and PK/PD data, but included in the baseline and safety data. In this study, safety and tolerability were assessed by monitoring AEs, vital signs, ECGs, clinical laboratory values from blood and urine, and physical examinations. Data from all subjects on placebo were pooled for the analyses.

[8] = APRI and FIB-4 fibrosis scores, post-hoc analysis of Study 202; format: in vivo, human
Protocol: Change in score category from baseline (BL) to Weeks 24 and 48 was assessed in patients with non-missing data. Correlations between changes from BL in APRI and FIB-4 scores, and MCP-1 (CCR2 ligand) and sCD14 (inflammatory biomarker) levels were evaluated.

SMILES: CCCCOCCOc1ccc(-c2ccc3c(c2)/C=C(/C(=O)Nc2ccc([S@@+]([O-])Cc4cncn4CCC)cc2)CCCN3CC(C)C)cc1 [CVC, (S)-8-[4-(2-Butoxyethoxy)phenyl]-1-isobutyl-N-(4-{[(1-propyl-1H-imidazol-5-yl)methyl]sulfinyl}phenyl)-1,2,3,4-tetrahydro-1-benzazocine-5-carboxamide]
- inhibition of ligand binding (in words) [1]: weakly inhibited
- virologic non-response, subgroup with high baseline viral load (≧100,000 copies/mL) ([2]; CVC 100 mg): 20%
- HIV-1 RNA ≧400 copies/mL ([2]; CVC 100 mg arm): (7%)
- Treatment difference from EFV arm ([2]; CVC 100 mg arm): 5%
- virologic non-response, subgroup with high baseline viral load (≧100,000 copies/mL) ([2]; CVC 200 mg): 29%
- Discontinued study due to AE or death ([2]; CVC 200 mg arm): (2%)
- HIV-1 RNA ≧50 but <400 copies/mL ([2]; CVC 200 mg arm): (7%)^e
- Treatment difference from EFV arm ([2]; CVC 200 mg arm): 4%
- RANTES-induced Ca2+ mobilization (in words) [3]: blocked
- Strong-stop HIV DNA decline (marker of HIV entry) ([4]; CVC 100 mg arm): 51%
- Strong-stop HIV DNA decline (marker of HIV entry) ([4]; CVC 200 mg arm): 37%
- average concentration required to reach >80% receptor occupancy ([5]; CCR2, monocytes): 1.8 nM
- prevention of MCP-1-induced CCR2 internalization (in words) ([5]; PBMCs): at lower concentrations than BMS-22
- CCR2 cell-surface expression (in words) ([5]; in the absence of MCP-1, monocytes): induced CCR2 internalization and decreased cell-surface expression on monocytes; also recorded: reduced CCR2 expression on monocytes
- concentration at which saturation of monocyte CCR2 was reached ([5]; monocytes): 6 nM
- receptor occupancy at 0.006 µM ([5]; monocytes, at 6 nM (saturation)): ~98%
- Emax in the PK/PD model ([6]; HIV-1 RNA, Study 201): −1.43 log10 copies/mL
- Emax at 25 mg ([6]; Human immunodeficiency virus 1, 25 mg dose, read-out: percent of the maximum inhibitory effect at average Css (Emax model)): 54.9%
- Emax at 50 mg ([6]; Human immunodeficiency virus 1, 50 mg dose, read-out: percent of the maximum inhibitory effect at average Css (Emax model)): 79.8%
- Emax at 75 mg ([6]; Human immunodeficiency virus 1, 75 mg dose, read-out: percent of the maximum inhibitory effect at average Css (Emax model)): 85.9%
- Emax at 150 mg ([6]; Human immunodeficiency virus 1, 150 mg dose, read-out: percent of the maximum inhibitory effect at average Css (Emax model)): 95.9%
- HIV-1 RNA, Baseline LS mean (SEM) ([7]; 25 mg cohort, Baseline): 4.46 (0.18) log10 copies/mL
- subjects who achieved HIV-1 RNA levels <400 copies/mL ([7]; 25 mg dose group): 1
- HIV-1 RNA, Nadir values, Median change from Baseline ([7]; 25 mg once daily): −0.7 log10 copies/mL
- Median days to nadir ([7]; 25 mg once daily): 10.0 days
- HIV-1 RNA, LS mean (SEM) change from Baseline ([7]; 25 mg once daily): −0.64 (0.14) log10 copies/mL
- HIV-1 RNA, Median change from Baseline ([7]; 25 mg once daily): −0.5 log10 copies/mL
- HIV-1 RNA, Baseline LS mean (SEM) ([7]; 50 mg cohort, Baseline): 4.33 (0.21) log10 copies/mL
- subjects who achieved HIV-1 RNA levels <400 copies/mL ([7]; 50 mg dose group): 2
- HIV-1 RNA, Nadir values, Median change from Baseline ([7]; 50 mg once daily): −1.6 log10 copies/mL
- Median days to nadir ([7]; 50 mg once daily): 11.0 days
- HIV-1 RNA, LS mean (SEM) change from Baseline ([7]; 50 mg once daily): −1.13 (0.16) log10 copies/mL
- HIV-1 RNA, Median change from Baseline ([7]; 50 mg once daily): −1.3 log10 copies/mL
- HIV-1 RNA, Baseline LS mean (SEM) ([7]; 75 mg cohort, Baseline): 4.65 (0.19) log10 copies/mL
- HIV-1 RNA, Nadir values, Median change from Baseline ([7]; 75 mg once daily): −1.8 log10 copies/mL
- Median days to nadir ([7]; 75 mg once daily): 10.0 days
- HIV-1 RNA, LS mean (SEM) change from Baseline ([7]; 75 mg once daily): −1.46 (0.15) log10 copies/mL
- HIV-1 RNA, Median change from Baseline ([7]; 75 mg once daily): −1.6 log10 copies/mL
- HIV-1 RNA, Baseline LS mean (SEM) ([7]; 150 mg cohort, Baseline): 4.10 (0.19) log10 copies/mL
- subjects who achieved HIV-1 RNA levels of <50 copies/mL ([7]; 150 mg dose group): 2
- subjects who achieved HIV-1 RNA levels <400 copies/mL ([7]; 150 mg dose group): 3
- HIV-1 RNA, Nadir values, Median change from Baseline ([7]; 150 mg once daily): −1.7 log10 copies/mL
- Median days to nadir ([7]; 150 mg once daily): 11.0 days
- HIV-1 RNA, LS mean (SEM) change from Baseline ([7]; 150 mg once daily): −1.42 (0.16) log10 copies/mL
- HIV-1 RNA, Median change from Baseline ([7]; 150 mg once daily): −1.5 log10 copies/mL
- drug resistance testing (in words) ([7]; Baseline, Day 7, Day 40, all subjects with evaluable samples): remained fully susceptible
- patients in APRI category 0.5-1.5 ([8]; Baseline): 14%
- patients in APRI category <0.5 ([8]; Baseline): 84%
- patients in APRI category >1.5 ([8]; Baseline): 2%
- patients in FIB-4 category 1.45-3.25 ([8]; Baseline): 17%
- patients in FIB-4 category <1.45 ([8]; Baseline): 82%
- patients in FIB-4 category >3.25 ([8]; Baseline): 1%
- APRI: Decreased 1 category from baseline ([8]; Week 24): 14%
- FIB-4: Decreased 1 category from baseline ([8]; Week 24): 13%
- patients in APRI category 0.5-1.5 ([8]; Week 24): 7%
- patients in APRI category <0.5 ([8]; Week 24): 93%
- patients in FIB-4 category 1.45-3.25 ([8]; Week 24): 7%
- patients in FIB-4 category <1.45 ([8]; Week 24): 93%
- APRI: Decreased 1 category from baseline ([8]; Week 48): 10%
- FIB-4: Decreased 1 category from baseline ([8]; Week 48): 14%
- patients in APRI category 0.5-1.5 ([8]; Week 48): 8%
- patients in APRI category <0.5 ([8]; Week 48): 91%
- patients in APRI category >1.5 ([8]; Week 48): 1%
- patients in FIB-4 category 1.45-3.25 ([8]; Week 48): 5%
- patients in FIB-4 category <1.45 ([8]; Week 48): 94%
- patients in FIB-4 category >3.25 ([8]; Week 48): 1%
